Experimental data taken from US12662518B2, “Engineered peptide and peptide mimetic compositions and methods” (The Wistar Institute of Anatomy and Biology, priority 2019, dated 2026).
Entries after “also recorded” stand apart in the source; their conditions may differ. Ends that are not written are not given here. Peptide text beside a SMILES is read from it.

Experiments:
PC3 cells [1] = test: mitochondrial membrane potential in tumor cells, TMRE, time-lapse videomicroscopy and flow cytometry; assay type: cell-based, human; conditions: 10 μM, single-cell time-lapse videomicroscopy or whole cell population
Protocol: Analysis of mitochondrial membrane potential. […] In some experiments, PC3 cells were treated with cell-permeable scrambled peptide or cell-permeable MFF #8-11 peptide, washed three times in PBS, pH 7.4, and analyzed on a FACSCalibur flow cytometer, with the TMRE signal as FL1. Intact cells were gated in the FSC/SSC plot to exclude small debris. Cells treated with 20 μM FCCP 10 min prior to TMRE staining were used as a negative control. The resulting FL1 data were plotted on a histogram. For quantification of membrane potential of purified mitochondria, mitochondria isolated from PC3 cells (50 μg) were suspended in 400 μl of SB buffer (0.2 M sucrose, 10 mM Tris-MOPS, pH 7.4, 5 mM succinate, 1 mM sodium phosphate, 10 μM EGTA-Tris, 2 μM rotenone). […] After two washes with SB buffer, mitochondria were recovered by centrifugation at 6000×g for 10 min, suspended in 100 μl of SB buffer and mitochondrial membrane potential was quantified on a florescence microplate reader (Ex/Em=535/595 nm, Beckman Coulter). […]
For time-lapse videomicroscopy, PC3 cells (2×10^4) growing in high optical-quality glass bottom chambered 8-well cell culture slides (MatTek Corporation) were stained with 100 nM TMRE (Abcam) and 50 nM MitoTracker Green FM (Life Technologies) for 20 min. […] A minimum of 100 cells were analyzed from 2 independent experiments. […]

[2] = tested on: prostate cancer cell types (LNCaP, C4-2B, PC3, DU145); test: cell death of prostate cancer cells, CellTox reactivity; assay type: cell-based, human; conditions: for tumor cell death / viability: PC3 / prostate cancer cells, 0-50 μM
Protocol: (§2) Cell death and apoptosis. […] The various cell-permeable MFF peptides were examined for induction of cytotoxicity using a CellTOX Green cytotoxicity assay kit (Promega). Briefly, 10^4 normal or tumor cells in 100 μl complete medium were plated on white opaque 96-well plate. […] Lysis Solution in the assay kit was used as cytotoxicity control (100% cell death) and treatment with PBS was used as a control for 100% cell viability.

glioblastoma LN229 cells = test: cell death of glioblastoma cells; assay type: cell-based, human
Description: (§1) Cell death and apoptosis.

[3] = tested on: normal prostatic epithelial cells (BPH-1); test: cell death of normal prostatic epithelial cells; assay type: cell-based, human; conditions: 0-40 μM, 2 h
Description: as §1

[4] = tested on: normal human foreskin fibroblasts (HFF); test: cell death of normal fibroblasts; assay type: cell-based; conditions: 0-40 μM
Description: as §1

DU145 or PC3 cells = test: release of HMGB1 and cyclophilin A from tumor cells, Western blotting; assay type: cell-based, human; conditions: marker of necrosis
[5] = tested on: patient-derived glioblastoma (GBM) neurospheres; test: patient-derived glioblastoma (GBM) neurospheres, calcein / To-Pro viability; assay type: cell-based; conditions: 10-50 μM, 1, 3 or 24 h; scrambled 50 μM
Description: Glioblastoma (GBM) neurospheres. Primary, patient-derived GBM neurospheres were isolated and maintained in culture essentially as described (Senft, D. & Ronai, Z. A. Regulators of mitochondrial dynamics in cancer. Curr Opin Cell Biol 39, 43-52 (2016)). Tissue samples were obtained from chemotherapy- or radiotherapy-naïve patients with confirmed histological diagnosis of WHO grade IV glioma (GBM) undergoing treatment at the Neurosurgery Division of Fondazione IRCCS Ca' Granda Ospedale Maggiore Policlinco (Milan, Italy). Written informed consent was obtained from all patients. Neurospheres were cyto-spinned on charged slides (Thermo Scientific, Waltham, Mass.) and treated with cell-permeable scrambled peptide (50 μM) or cell-permeable retro-inverso D-enantiomer MFF peptide (10-50 μM) for up to 24 h. Control-normalized changes in cell viability under the various conditions were determined by the ratio of Calcein (alive) and To-Pro (dead) staining and fluorescence microscopy (Eclipse Ti-E, Nikon Instruments, Florence, Italy).

[6] = tested on: patient-derived NSCLC organoids; test: patient-derived NSCLC organoids, Ki-67 and cleaved caspase-3 immunohistochemistry; assay type: cell-based, human; conditions: 50-100 μM, 24 h
[7] = tested on: patient-derived breast adenocarcinoma organoids; test: patient-derived breast adenocarcinoma organoids, Ki-67 and cleaved caspase-3 immunohistochemistry; assay type: cell-based, human; conditions: 50-100 μM, 24 h
[8] = tested on: NSCLC A549 and H460 or breast adenocarcinoma MDA-231 and MCF-7 cells; test: NSCLC and breast adenocarcinoma cell lines, TMRE flow cytometry and CellTox cell death; assay type: cell-based, human; conditions: A549, H460, MDA-231, MCF-7 cells, 10-25 μM
PC3 cells [9] = test: cytochrome c release from tumor cells, Western blotting; assay type: cell-based, human; conditions: supernatants vs mitochondrial extracts
[10] = tested on: immortalized wild type (WT) mouse embryonic fibroblasts (MEF); test: cell death of wild type MEF; assay type: cell-based; conditions: 10-50 μM
Description: as §1

CypD^−/− MEF = test: cell death of CypD-/- MEF; assay type: cell-based, mouse; conditions: 25 μM
Description: as §1

[11] = tested on: drug-sensitive and drug-resistant melanoma cells; conditions: isogenic pairs, CellTox reactivity
Protocol: as §2

Molecule | loss of mitochondrial membrane potential (PC3 cells [1]) | tumor cell death / viability [2] | killing of GBM LN229 cells (glioblastoma LN229 cells; 0-40 μM) | cell death of normal prostatic epithelial cells [3] | cell death of normal fibroblasts (HFF) [4] | HMGB1 release from tumor cells (DU145 or PC3 cells) | cytotoxicity for patient-derived GBM neurospheres (loss of cell viability) [5] | apoptosis / cell death markers (cleaved caspase-3^+ cells), NSCLC organoids [6] | cell proliferation (Ki-67^+ cells), NSCLC organoids [6] | apoptosis / cell death markers (cleaved caspase-3^+ cells), breast adenocarcinoma organoids [7] | cell proliferation (Ki-67^+ cells), breast adenocarcinoma organoids [7] | tumor cell death ([8]; CellTox) | mitochondrial membrane potential ([8]; TMRE) | cytochrome c release from tumor cells (PC3 cells [9]) | IC50 ([2]; prostate cancer cell types, read-out: IC50, cell killing) | IC50 (glioblastoma LN229 cells; glioblastoma, read-out: IC50, cell killing) | cyclophilin A (CypA) release from tumor cells (DU145 or PC3 cells) | cell death of WT MEF [10] | cell death of CypD^−/− MEF (CypD^−/− MEF) | cell death of drug-sensitive and drug-resistant melanoma cells [11]
cell-permeable scrambled peptide: cell-permeable control scrambled peptide #8-11 (SEQ ID NO: 22) (SSQLRYLARSQRITIQLIAGS; also: cell-permeable moiety) | not | did not kill normal or prostate cancer cells | did not cause LN229 cell killing | did not kill normal or prostate cancer cells | did not kill normal or prostate cancer cells | had no effect on HMGB1 release; also recorded: did not induce HMGB1 release | not | had no effect | had no effect | had no effect | had no effect | had no effect | had no effect |  |  |  |  |  |  | 
CC[C@H](C)[C@H](NC(=O)CNC(=O)[C@H](CCCNC(=N)N)NC(=O)[C@H](C)NC(=O)[C@H](CO)NC(=O)[C@H](CCCCN)NC(=O)[C@H](CCSC)NC(=O)[C@H](CCCNC(=N)N)NC(=O)[C@H](CCCNC(=N)N)NC(=O)[C@H](CC(N)=O)NC(=O)[C@H](CCC(N)=O)NC(=O)[C@H](Cc1ccccc1)NC(=O)[C@H](Cc1c[nH]c2ccccc12)NC(=O)[C@@H](NC(=O)[C@H](CCCCN)NC(=O)[C@@H](NC(=O)[C@H](CCC(N)=O)NC(=O)[C@H](CCCNC(=N)N)NC(=O)CCCCCNC(=O)CCCC[C@@H]1SC[C@@H]2NC(=O)N[C@@H]21)[C@@H](C)CC)[C@@H](C)CC)C(=O)N[C@@H](CC(C)C)C(=O)N[C@@H](CO)C(=O)N[C@@H](CC(C)C)C(=O)N[C@H](C(=O)N[C@@H](CCC(N)=O)C(=O)N[C@@H](CO)C(=O)N[C@@H](CO)C(=O)N[C@H](C(=O)N[C@@H](CCCNC(=N)N)C(=O)N[C@@H](CCCNC(=N)N)C(=O)N[C@@H](C)C(=O)N[C@@H](Cc1ccc(O)cc1)C(=O)N[C@@H](CCC(N)=O)C(=O)N[C@@H](CCC(N)=O)C(=O)N[C@H](C(=O)N[C@@H](CC(C)C)C(=O)O)[C@@H](C)CC)[C@@H](C)O)[C@@H](C)CC [cell-permeable MFF peptide #8-11] (HELM PEPTIDE1{[O=C1N[C@H]2[C@H](CS[C@H]2CCCCC(=O)[*:2])N1].[O=C(CCCCCN[*:1])[*:2]].R.Q.I.K.I.W.F.Q.N.R.R.M.K.S.A.R.G.I.L.S.L.I.Q.S.S.T.R.R.A.Y.Q.Q.I.L}$$$$V2.0; N-terminus and C-terminus assumed) | induced acute loss of mitochondrial membrane potential; also recorded: induced sudden loss of mitochondrial membrane potential | efficiently killed tumor cells in a time- and concentration-dependent manner |  |  |  | induced the release of HMGB1 and cyclophilin A (CypA) |  |  |  |  |  |  |  | induced cytochrome c release | ~10 µM | ~10 µM | induced the release of HMGB1 and cyclophilin A (CypA) | killed immortalized wild type (WT) mouse embryonic fibroblasts (MEF) in a concentration-dependent manner; also recorded: efficiently killed WT MEF in a time- and concentration-dependent response | abolished cell death | comparably killed
